The source of these data is US11160808B2, “Compounds that enhance Atoh1 expression” (Massachusetts Eye & Ear Infirmary, priority 2008, dated 2021).

Where only a bound is given, the exact number is not on record here.

The test system of data set [1] is Math1 enhancer and minimal promoter Luciferase reporter in HEK cells. In words: Math1 Luciferase reporter assay in HEK cells. It is filed as cell-based, human. To be noted: Homo sapiens, HEK293; for IC50: read-out: IC50; for maximal fold induction: read-out: Maximum (Fold DMSO). In short, it runs like this:
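HEK cells stably carrying luciferase under the Math1 enhancer and minimal promoter were treated with compounds for 48 hours at 37° C, then lysed for luminescence, normalized to DMSO. Hits were defined as a 2-fold increase, with 1 μM retinoic acid as positive control. Follow-up used 0.1, 1 and 5 μM for 48 hours in 10% FBS DMEM, read by luciferase and real-time PCR.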

The nature of data set [2]: LD50 (median lethal dose) determination. In kind it is cell-based. The text has this:
IC50 is a measure of the effectiveness of a compound in inhibiting biological or biochemical function. LD50 is the amount of a compound required to kill half the members of a tested population.

For another data set, the system named is Math1 mRNA. In words: Math1 mRNA expression by RT-PCR in HEK cells. To be noted: among the four randomly selected compounds. In kind it is cell-based, human. As for the experimental part:
Ten compounds, randomly selected from the group of 110 compounds identified in Example 2, were further evaluated, as follows. HEK cells were plated on 96 well plates at a density of 100000 cells per well. One day after plating, 0.1, 1, and 5 μM of each positive compound was added per well in a 10% fetal bovine serum (FBS) DMEM solution. Cells were then lysed 48 hours after addition of the compound and Math1 expression was analyzed using a luciferase reporter assay, as described above, and real-time PCR.
RNA was also isolated and Math1 transcripts were amplified using high-throughput RT-PCR.

For a further data set, the system named is Inner ear stem cells. Kind of data set: Hair cell differentiation of inner ear stem cells (Math1-GFP and myosin 7a co-labeling). In kind it is cell-based. To be noted: cells co-labeled with Math1-GFP and myosin 7a; control 1.6%. The text has this:
Inner ear stem cells were exposed to compound CP.-0000540, which was selected at random from the group of 110 positive compounds described in Example 2.
Hair cell differentiation was increased to 5.1% of total cells compared to 1.6% for control.

For the molecule `COc1ccc(-c2nc3ccccc3n2CCc2ccccc2)cc1` [CP-0193184, 2-(4-methoxyphenyl)-1-phenethyl-1H-benzo[d]imidazole], the IC50 (in general, the concentration that gives 50% inhibition) in data set [1] is greater than 10000 nM. The “LD50” value in data set [2] was greater than 30 µM. Also, the “increase in Math1 mRNA expression (ranking in words)” value in the data set on Math1 mRNA is “highest increase”.
Consider `Clc1ccc2nc(-c3ccccc3)n(OCc3ccccc3Cl)c2c1` [CP-0000540, 6-chloro-1-(2-chlorobenzyloxy)-2-phenyl-1H-benzo[d]imidazole], for which, in data set [1], the IC50 is 1300 nM and the maximal fold induction was found to be 2. Moreover, the “LD50” value in data set [2] is greater than 30 µM. Moreover, the “increase in Math1 mRNA expression (ranking in words)” value with Math1 mRNA is “highest increase”. Moreover, the Hair cell differentiation in the data set on Inner ear stem cells is on record as 5.1 % of total cells.
On to `CC(C)Oc1ccc(C(=O)Nc2sccc2C#N)cc1` [CP-0110352, N-(3-cyanothiophen-2-yl)-4-isopropoxybenzamide], for which, in data set [1], the IC50 came out at 50 nM and the maximal fold induction amounted to 1.8. Besides, the “LD50” value in data set [2] is greater than 10 µM.
For `COc1cccc2c1OCC(C(=O)Nc1ccc(Cl)cc1Cl)=C2` [CP-0000928, N-(2,4-dichlorophenyl)-8-methoxy-2H-chromene-3-carboxamide], in that order: 300 nM, 2 and greater than 10 µM.
`Cc1cccc(NC(=O)c2ccc3c(c2)OCCO3)n1` [CP-0029278, N-(6-methylpyridin-2-yl)-2,3-dihydrobenzo [b][1,4]dioxine-6-carboxamide]: in data set [1], the IC50 is 500 nM and the maximal fold induction turned out to be 1.9. In addition, in data set [2], the “LD50” value is greater than 10 µM.
For `COc1ccc(-c2ccc3c(n2)CCCN3)cc1` [CP-0080276, 6-(4-methoxyphenyl)-1,2,3,4-tetrahydro-1,5-naphthyridine], in that order: 300 nM, 2 and greater than 10 µM.
On to `Cc1ccccc1OCc1nc2ccccc2[nH]1` [CP-0109953, 2-(o-tolyloxymethyl)-1H-benzo[d]imidazole], for which, in data set [1], the IC50 stood at 100 nM and the maximal fold induction was 1.8. Besides, the “LD50” value in data set [2] is greater than 10 µM.
On to `Nc1nc(-c2ccc(-c3ccccc3)cc2)cs1` [CP-0072036, 4-(biphenyl-4-yl) thiazol-2-amine], for which, in data set [1], the IC50 is 1500 nM and the maximal fold induction came to 1.7. For the same molecule, the “LD50” value in data set [2] was greater than 10 µM.
`c1ccc(-c2cc3ccccc3[nH]2)nc1` [CP-0072096, 2-(pyridin-2-yl)-1H-indole]: in data set [1], the IC50 turned out to be 6000 nM and the maximal fold induction was determined as 2.2. Besides, the “LD50” value in data set [2] was greater than 10 µM.
For `COCCNc1ncc(-c2ccc(C)cc2)cn1` [CP-0059547, N-(2-methoxyethyl)-5-p-tolylpyrimidin-2-amine], in that order: 1000 nM, 2 and greater than 10 µM.
For `COc1ccc(-c2nc3ccc(Cl)cc3n2OCc2ccc(C)cc2)cc1` [CP-0000553, 6-chloro-2-(4-methoxyphenyl)-1-(4-methylbenzyloxy)-1H-benzo[d]imidazole], in that order: 10 nM, 2 and greater than 30 µM.
For `O=c1ccc2ccc(OCc3ccc(F)cc3)cc2o1` [CP-0063508, 7-(4-fluorobenzyloxy)-2H-chromen-2-one], in data set [1], the IC50 is greater than 10000 nM and the maximal fold induction is 1.7. Further, the “LD50” value in data set [2] is greater than 10 µM.
For `CC(=O)Nc1cc(-c2sc3ccc(Cl)cc3c2C)n[nH]1` [CP-0102404, N-(3-(5-chloro-3-methylbenzo[b]thiophen-2-yl)-1H-pyrazol-5-yl)acetamide], in that order: greater than 10000 nM, 1.6 and greater than 10 µM.
